The results in this text go back to publication PMC5160999 (ChemMedChem, 2016).

Experiment [1] deals with B. subtilis. Put plainly: Synergy/antagonism two-drug combination assay, B. subtilis. In kind it is cell-based.
Experiment [2] relates to S. aureus. Briefly: Synergy/antagonism two-drug combination assay, S. aureus. In kind it is cell-based.
Experiment [3] deals with E. coli. Briefly: Synergy/antagonism two-drug combination assay, E. coli. The format is cell-based.
In experiment [4] the test system is A. baumannii. Briefly: Synergy/antagonism two-drug combination assay, A. baumannii. The format is cell-based.
Experiment [5] deals with K. pneumoniae. Briefly: Synergy/antagonism two-drug combination assay, K. pneumoniae. In kind it is cell-based.
For experiment [6], the system named is P. aeruginosa. Briefly: Synergy/antagonism two-drug combination assay, P. aeruginosa. The format is cell-based.
Experiment [7] concerns the target EcUPPP (Escherichia coli, UniProt P60932). Put plainly: EcUPPP inhibition, malachite-green assay. As to conditions: read-out: IC50 EuUPPP. The format is biochemical, E. coli.

Sequence of EcUPPP (P60932 whole entry): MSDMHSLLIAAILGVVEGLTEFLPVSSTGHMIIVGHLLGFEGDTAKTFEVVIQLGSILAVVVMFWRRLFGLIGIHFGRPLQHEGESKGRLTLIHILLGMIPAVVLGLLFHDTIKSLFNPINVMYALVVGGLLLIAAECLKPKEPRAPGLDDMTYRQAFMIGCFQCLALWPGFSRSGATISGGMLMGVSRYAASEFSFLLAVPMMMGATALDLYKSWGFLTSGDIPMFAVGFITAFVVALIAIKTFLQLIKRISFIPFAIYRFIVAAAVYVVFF

As to `CC1(C)S[C@@H]2[C@H](NC(=O)[C@H](N)c3ccccc3)C(=O)N2[C@H]1C(=O)O` [Ampicillin], the FIC stood at 0.18 ± 0.041 in experiment [1] (B. subtilis, combination of 32 with Ampicillin) and 0.30 ± 0.095 in experiment [2] (S. aureus, combination of 32 with Ampicillin). Also, the MIC in experiment [1] (Bacillus subtilis) and in experiment [2] (Staphylococcus aureus) was 0.5 µg/mL in each case.
As to `CC1(C)S[C@@H]2[C@H](NC(=O)C(C(=O)O)c3ccccc3)C(=O)N2[C@H]1C(=O)O` (stereo partly drawn) [Carbenicillin], the FIC in experiment [1] (B. subtilis, combination of 32 with Carbenicillin) is listed as 0.25 ± 0.043; in experiment [2] (S. aureus, combination of 32 with Carbenicillin), 0.27 ± 0.015. Besides, the values for the MIC in experiment [1] (Bacillus subtilis) and in experiment [2] (Staphylococcus aureus) were 5 µg/mL and 15 µg/mL, respectively.
`CO/N=C(\C(=O)N[C@@H]1C(=O)N2C(C(=O)O)=C(COC(C)=O)CS[C@H]12)c1csc(N)n1` [Cefotaxime]: the FIC in experiment [1] (B. subtilis, combination of 32 with Cefotaxime) worked out at 0.30 ± 0.044; in experiment [2] (S. aureus, combination of 32 with Cefotaxime), 0.21 ± 0.048. The MIC in experiment [1] (Bacillus subtilis) came out at 2.5 µg/mL; in experiment [2] (Staphylococcus aureus) it was 2 µg/mL.
Consider `O=C(N[C@H](CO)[C@H](O)c1ccc([N+](=O)[O-])cc1)C(Cl)Cl` [Chloramphenicol], for which the FIC was determined as 0.55 ± 0.13 in experiment [1] (B. subtilis, combination of 32 with Chloramphenicol) and 0.71 ± 0.11 in experiment [2] (S. aureus, combination of 32 with Chloramphenicol). In addition, the MIC in experiment [1] (Bacillus subtilis) amounted to 0.5 µg/mL; in experiment [2] (Staphylococcus aureus), 5 µg/mL.
Consider `C[C@@H]1O[C@@H]1P(=O)(O)O` [Fosfomycin], for which the FIC in experiment [1] (B. subtilis, combination of 32 with Fosfomycin) is given as 0.21 ± 0.025; in experiment [2] (S. aureus, combination of 32 with Fosfomycin), 0.13 ± 0.022. Besides, the MIC in experiment [1] (Bacillus subtilis) and in experiment [2] (Staphylococcus aureus) was 200 µg/mL throughout.
As to `NC[C@H]1O[C@H](O[C@H]2[C@H](O)[C@@H](O[C@H]3O[C@H](CO)[C@@H](O)[C@H](N)[C@H]3O)[C@H](N)C[C@@H]2N)[C@H](O)[C@@H](O)[C@@H]1O` [Kanamycin], the FIC in experiment [1] (B. subtilis, combination of 32 with Kanamycin) is recorded as 0.61 ± 0.097; in experiment [2] (S. aureus, combination of 32 with Kanamycin), 0.81 ± 0.17. In addition, the MIC in experiment [1] (B. subtilis, drug acting alone) came to 1.5 µg/mL; in experiment [2] (S. aureus, drug acting alone), 1.5 µg/mL.
As to `CN[C@@H]1[C@H](O)[C@H](NC)[C@H]2O[C@@]3(O)C(=O)C[C@@H](C)O[C@H]3O[C@@H]2[C@H]1O` [Spectinomycin], the FIC in experiment [2] (S. aureus, combination of 32 with Spectinomycin) was 0.45 ± 0.091. Also, in experiment [2] (Staphylococcus aureus), the MIC was 40 µg/mL.
On to `Cc1cc(NS(=O)(=O)c2ccc(N)cc2)no1` [Sulfamethoxazole], for which the FIC came out at 0.87 ± 0.23 in experiment [1] (B. subtilis, combination of 32 with Sulfamethoxazole) and 0.75 ± 0.20 in experiment [2] (S. aureus, combination of 32 with Sulfamethoxazole). In addition, the MIC in experiment [1] (Bacillus subtilis) and in experiment [2] (Staphylococcus aureus) was 200 µg/mL in each case.
Consider `CN(C)[C@@H]1C(O)=C(C(N)=O)C(=O)[C@@]2(O)C(O)=C3C(=O)c4c(O)cccc4[C@@](C)(O)[C@H]3C[C@@H]12` [Tetracycline], for which the FIC amounted to 0.82 ± 0.21 in experiment [1] (B. subtilis, combination of 32 with Tetracycline) and 0.83 ± 0.38 in experiment [2] (S. aureus, combination of 32 with Tetracycline). In addition, the MIC in experiment [1] (Bacillus subtilis) is 5 µg/mL; in experiment [2] (Staphylococcus aureus), 0.5 µg/mL.
In the case of `COc1cc(Cc2cnc(N)nc2N)cc(OC)c1OC` [Trimethoprim], the FIC amounted to 0.77 ± 0.18 in experiment [1] (B. subtilis, combination of 32 with Trimethoprim) and 0.69 ± 0.32 in experiment [2] (S. aureus, combination of 32 with Trimethoprim). Moreover, the MIC in experiment [1] (Bacillus subtilis) worked out at 0.5 µg/mL; in experiment [2] (Staphylococcus aureus), 15 µg/mL.
Turning to `CN[C@H](CC(C)C)C(=O)N[C@H]1C(=O)N[C@@H](CC(N)=O)C(=O)N[C@H]2C(=O)N[C@H]3C(=O)N[C@H](C(=O)N[C@H](C(=O)O)c4cc(O)cc(O)c4-c4cc3ccc4O)[C@H](O)c3ccc(c(Cl)c3)Oc3cc2cc(c3O[C@@H]2O[C@H](CO)[C@@H](O)[C@H](O)[C@H]2O[C@H]2C[C@](C)(N)[C@H](O)[C@H](C)O2)Oc2ccc(cc2Cl)[C@H]1O` [Vancomycin], the FIC in experiment [1] (B. subtilis, combination of 32 with Vancomycin) came out at 0.33 ± 0.058; in experiment [2] (S. aureus, combination of 32 with Vancomycin) it was 0.19 ± 0.019. For the same compound, the figures for the MIC in experiment [1] (Bacillus subtilis) and in experiment [2] (Staphylococcus aureus) were 0.5 µg/mL and 1.5 µg/mL, respectively.
For the compound `O=CN(O)CCCP(=O)(O)O` [fosmidomycin], the FIC in experiment [3] (E. coli, combination of 11 with fosmidomycin) was 0.14 ± 0.13; in experiment [4] (A. baumannii, combination of 11 with fosmidomycin), 0.27 ± 0.057; in experiment [5] (K. pneumoniae, combination of 11 with fosmidomycin), 0.12 ± 0.014; in experiment [6] (P. aeruginosa, combination of 11 with fosmidomycin), 0.18 ± 0.066; in experiment [1] (B. subtilis, combination of 32 with Fosmidomycin), 0.25 ± 0.043. Also, the MIC in experiment [3] (Escherichia coli) was 5 µg/mL; in experiment [4] (Acinetobacter baumannii) it was 5 µg/mL; in experiment [5] (Klebsiella pneumoniae) it was 5 µg/mL; in experiment [6] (Pseudomonas aeruginosa) it was 3 µg/mL; in experiment [1] (Bacillus subtilis), 5 µg/mL.
On to Bacitracin, for which, in experiment [7], the IC50 amounted to 32 µM. The FIC in experiment [1] (B. subtilis, combination of 32 with Bacitracin) amounted to 0.12 ± 0.028; in experiment [2] (S. aureus, combination of 32 with Bacitracin) it was 0.21 ± 0.039. Moreover, the MIC was 200 µg/mL in experiment [1] (B. subtilis, drug acting alone) and 200 µg/mL in experiment [2] (S. aureus, drug acting alone).
